Assays:
[1] = Biological activity after removal of moieties of lipid X
[2] = test system: sheep; assay: Hemodynamic response and toxicity of lipid X in sheep; assay type: in vivo; conditions: 40 sheep injected with lipid X
Description: The hemodynamic response of sheep to lipid X has been studied (18). Essentially, the conclusions are that: 1) lipid X (40 μg/kg cumulative dose) causes a transient (3-5 min) increase in pulmonary arterial pressure, that may be attributed to prostaglandin release, or stimulated synthesis. […] The only significant symptoms observed after injection of lipid X alone are transient lethargy and shortness of breath (15-30 min), without significant distress or obvious adverse long-term consequences.
A period of transient pulmonary hypertension and slight short ness of breath subsides after 30 minutes. About 30 sheep were examined by Burhop with regard to lipid X toxicity.

[3] = test system: macrophage protein kinase C; conditions: cited from earlier work
[4] = test system: macrophages; conditions: cited from earlier work
[5] = test system: C57BL/10 mice; assay: Toxicity of lipid X in mice; assay type: in vivo, mouse
Description: To test for the toxicity of lipid X in mice, C57BL/10 mice were challenged with 750, 2000 or 5000 μg of lipid X intraperitoneally (12 mice) or with 750, 1500 or 3000 μg intravenously (7 mice).

[6] = test system: sheep; assay: Protection of sheep by lipid X against lethal effects of intravenous lipopolysaccharide; assay type: in vivo
Description: Preparation of E. coli lipid X. The 2,3-diacylglucosamine 1-phosphate (E. coli lipid X) was isolated from E. coli strain MN7 (ATCC #39328) as described previously (9). […] Stock solutions (1-10 mg/ml) are usually prepared in aqueous 1 mM EDTA titrated to pH 8 with Tris-free base. […] In experiments involving the use of mice, solid lipid X was first dissolved in 0.9% saline (instead of water) and titrated with Tris-free base to pH 8 in the same manner.
(§1) Stock solutions of 5 mg/ml were prepared in sterile 0.9% saline.
(§2) Experimental Animals. Eight week old mice (strain C57BL/10) were purchased from Jackson Laboratories, Bar Harbor, ME. Mixed bred sheep weighing 30-70 kg were obtained from the University of Wisconsin Experimental Farms. Sheep were prepared as follows: at least 24 hours before each experiment catheters were percutaneously placed in the pulmonary artery. Any other catheterizations that were required for infusion were done at this time. All studies were performed on awake, unrestrained sheep placed in portable stanchions with food and water ad libitum. Electronically calculated pulmonary artery pressures as well as heart rates were recorded at various intervals on a Gilson polygraph (Gilson Instruments, Middleton, WI). To ensure a stable baseline prior to the injection of test compounds, approximately 1 hour of baseline measurements were recorded.

[7] = Solution behaviour of lipid X; assay type: physicochemical
Description: (§3) Preparation of E. coli lipid X. The 2,3-diacylglucosamine 1-phosphate (E. coli lipid X) was isolated from E. coli strain MN7 (ATCC #39328) as described previously (9). Lipid X obtained in this manner is a solid white powder. Stock solutions (1-10 mg/ml) are usually prepared in aqueous 1 mM EDTA titrated to pH 8 with Tris-free base. Other monovalent counter ions, such as (NH4)^+, Na^+, K^+, etc., may also be used, but divalent cations such as Mg^++ and Ca^++ cause the lipid to precipitate. […] In experiments involving the use of mice, solid lipid X was first dissolved in 0.9% saline (instead of water) and titrated with Tris-free base to pH 8 in the same manner.

[8] = test system: B cell; conditions: cited from earlier work
[9] = test system: experimental tumors in guinea pigs; conditions: cited from earlier work
[10] = test system: sheep; conditions: cited from earlier work
[11] = Storage stability of lipid X stock solutions; assay type: physicochemical; conditions: stock solutions 5-10 mg/ml stored frozen at -20° C.
Description: as §3

[12] = test system: C57BL/10 mice; assay: Protection of mice by lipid X against lethal endotoxemia; assay type: in vivo, mouse
Description: FIG. 4. […] Controls receiving no lipid X are shown at the left of each panel. The number of mice per group is either three or four, and is the sum of the dead and the living. The number of survivors is shown at the top of the panel. Each point represents the death of one mouse. When all individuals died the mean time of death is shown as a horizontal bar. […] Doses of lipid X were administered in 0.1 ml of physiological saline that had been titrated to pH 8 with Tris to dissolve the lipid.
as §2
Mice were allowed to rest for at least 7 days following their arrival and were sexually segregated and housed at 5 per cage with food and water ad libitum. […] No more than 0.1 ml of fluid was injected at a time. Just prior to injection, the mice were lightly anesthetized with ether. Following the injection, mice were observed every 0.5-6 hours and the time of death was recorded.
The lethal dose of E. coli endotoxin was determined both for the intravenous and of the intraperitoneal challenge.
Mice were given 750 μg of lipid X from 24 hours prior to 6 hours after endotoxin challenge with 1-2 LD100 doses.

[13] = previous work; dependent on being given prior to or very shortly after LPS challenge; cited from earlier work
[14] = test system: sheep; assay: Lethality and clinical toxicity of intravenous lipopolysaccharide in sheep; conditions: usually the result of disseminated intravascular coagulopathy
Description: as §1, §2

[15] = sheep, pretreatment with lipid X
[16] = lipid X by itself 40-1000 μg/kg

Q: With `CCCCCCCCCCCC(O)CC(=O)N[C@H]1[C@@H](OP(=O)(O)O)O[C@H](CO)[C@@H](O)[C@@H]1O` (stereo partly drawn) [N-monoacyl glucosamine 1-phosphate] as the compound, how does the “biological activity after removal of the ester linked β-hydroxymyristoyl moiety” value ([1]; mild alkali treatment of lipid X) read?
A: biologically inert

Q: For `CCCCCCCCCCCC(O)CC(=O)N[C@H]1C(O)O[C@H](CO)[C@@H](O)[C@@H]1OC(=O)CC(O)CCCCCCCCCCC` (stereo partly drawn) [dephospho-X], which “biological activity after removal of the phosphate moiety” value ([1]; mild acid treatment of lipid X, may be due to inherent solubility of dephospho-X) is on record?
A: reduces biological activity

Q: Which “adverse complications of lipid X administration” value [2] does the source give for `CCCCCCCCCCCC(O)CC(=O)N[C@H]1[C@@H](OP(=O)(O)O)O[C@H](CO)[C@@H](O)[C@@H]1OC(=O)CC(O)CCCCCCCCCCC` (stereo partly drawn) [lipid X, 2,3-diacylglucosamine 1-phosphate] here?
A: no serious adverse complications

Q: And the “activation of macrophage protein kinase C” value [3]?
A: can activate macrophage protein kinase C

Q: What about the “macrophage activation with release of prostaglandin E2” value [4] of the same compound?
A: capable of activating macrophages with release of protaglandin E2

Q: And the “survival after lipid X challenge” value ([5]; 750, 2000 or 5000 μg intraperitoneally (12 mice) or 750, 1500 or 3000 μg intravenously (7 mice))?
A: All these mice lived

Q: What about the “toxicity of lipid X” value ([5]; mice) of the same compound?
A: nontoxic in mice

Q: And the Survivors ([6]; lipid X 50 μg/kg 1 hour prior to endotoxin, lipopolysaccharide 20 μg/kg)?
A: 1/2

Q: And the Survivors ([6]; lipid X 100 μg/kg 15 min. prior to endotoxin, lipopolysaccharide 10 μg/kg)?
A: 3/3

Q: What about the Survivors ([6]; lipid X 100 μg/kg 1 hour prior to endotoxin, lipopolysaccharide 20 μg/kg) of the same compound?
A: 4/4

Q: And the Survivors ([6]; lipid X 200 μg/kg 1 hour prior to endotoxin, lipopolysaccharide 20 μg/kg)?
A: 3/3

Q: And the “survival of subsequent LPS challenge” value ([6]; sheep receiving 100-200 μg/kg lipid X during the pretreatment period)?
A: all the sheep receiving 100-200 μg/kg of lipid X during the pretreatment period survived

Q: And the “excess of lipid X over LPS required to ensure survival” value ([6]; sheep, on a weight basis)?
A: 5-10 fold

Q: And the “effect on pulmonary hypertension or fever induced by LPS” value [6, 15]?
A: does not prevent pulmonary hypertension or fever

Q: And the “effect on serious clinical symptoms (shortness of breath, weakness, diarrhea, etc.)” value [6, 15]?
A: alleviates some of the serious clinical symptoms

Q: And the “resistance to the lethal effects of gram-negative endotoxin” value [6, 15]?
A: immediately resistant to the lethal effects

Q: What about the “behaviour with divalent cations” value ([7]; Mg^++ and Ca^++) of the same compound?
A: precipitate

Q: What about the “solution behaviour in Tris-EDTA” value ([7]; pH 8, stock solutions 1-10 mg/ml) of the same compound?
A: forms a clear viscous solution

Q: What about the solubility in water ([7]; water) of the same compound?
A: limited solubility

Q: What about the B cell mitogen [8] of the same compound?
A: B cell mitogen

Q: And the “regression of experimental tumors” value [9]?
A: capable of inducing regression of experimental tumors in guinea pigs

Q: And the “duration of transient increase in pulmonary arterial pressure” value ([10]; lipid X 40 μg/kg cumulative dose)?
A: 3 to 5 min

Q: What about the “duration of pulmonary hypertension” value ([10]; lipid X 500-1000 μg/kg intravenously) of the same compound?
A: 5 to 10 min

Q: And the “duration of transient lethargy and shortness of breath” value ([10]; lipid X alone)?
A: 15 to 30 min

Q: And the “marked illness or fever” value [10, 16]?
A: does not create marked illness or fever

Q: And the “time for transient pulmonary hypertension and slight shortness of breath to subside” value [10, 16]?
A: 30 min

Q: And the “increased permeability of the pulmonary circulation” value ([10]; lipid X, compared to endotoxin)?
A: to a very mild degree compared to endotoxin

Q: And the “delay between injection and increase of pulmonary arterial pressure” value ([10]; lipid X)?
A: no delay

Q: What about the life-threatening pulmonary edema ([10]; lipid X) of the same compound?
A: does not develop

Q: And the terminal endotoxemia ([10]; very high doses of lipid X)?
A: fails to cause terminal endotoxemia

Q: And the storage stability [11]?
A: many months without evidence of significant deterioration

Q: What about the “last death after challenge” value ([12]; 750 μg lipid X intravenously, 250 or 500 μg endotoxin intravenously) of the same compound?
A: ≤ 5 days

Q: And the “mortality of group receiving lipid X shortly after endotoxin challenge” value ([12]; both challenge doses, versus the group on either side)?
A: higher mortality than the group on either side

Q: What about the “onset and duration of protection against lipopolysaccharide” value ([12]; compared with classical tolerance, which does not appear for many days) of the same compound?
A: immediate and wears off after several hours

Q: And the survival of mice ([12]; lipid X (750 μg intravenously) from 1 hour prior to through 4 hours post LPS challenge, 250 μg endotoxin)?
A: 81%

Q: And the survival of mice ([12]; lipid X from 6 hours prior to endotoxin challenge through 1 hour after LPS challenge, intravenous, printed 500 μg lipid X)?
A: Forty-one

Q: What about the “prolongation of time to death” value ([12]; lipid X intraperitoneally 2 hours before 1500 μg endotoxin (3 times LD100) intraperitoneally, data not shown) of the same compound?
A: four

Q: And the time to death ([12]; lipid X intraperitoneally 2 hours before 1500 μg endotoxin, about 20 hours without lipid X, data not shown)?
A: ~80 h

Q: And the “resistance to the lethal effects of gram-negative endotoxin” value ([12]; mice, pretreatment with lipid X)?
A: immediately resistant to the lethal effects

Q: What about the “prevention of lethal endotoxicity when given after lipopolysaccharide” value ([12]; mouse, lipid X given 4 hours after lipopolysaccharide) of the same compound?
A: appears to prevent lethal endotoxicity even when given 4 hours after lipopolysaccharide

Q: Which “prevention of the complications of lipopolysaccharide injection” value [13] does the source give for `C=CCN1CC[C@]23c4c5ccc(O)c4O[C@H]2C(=O)CC[C@@]3(O)[C@H]1C5` [naloxone] here?
A: limited prevention of the complications

Q: With lipid A as the compound, how does the “time of death after injection (occasional)” value [14] read?
A: 1-2 weeks

Reference: patent US4918061A, “Method of preventing diseases caused by gram-negative endotoxin in mammals” (priority 1988, dated 1990)
